Laboratory results taken from patent US10344060B2 (priority 2013, dated 2019).
Read-outs that look alike come from different tables or passages of the source.

Molecular target: hNav1.7 (Homo sapiens, UniProt Q15858)
Assay: cell-based
Type: cell-based
Conditions: for Nav1.4/Nav1.7 / Nav1.5/Nav1.7: ratio of PX tonic IC50 values, Table 11
[1] = Table 12, PatchXpress, tonic block, read-out: PX hNav1.7 Tonic IC50

hNav1.7, sequence (Q15858 whole entry): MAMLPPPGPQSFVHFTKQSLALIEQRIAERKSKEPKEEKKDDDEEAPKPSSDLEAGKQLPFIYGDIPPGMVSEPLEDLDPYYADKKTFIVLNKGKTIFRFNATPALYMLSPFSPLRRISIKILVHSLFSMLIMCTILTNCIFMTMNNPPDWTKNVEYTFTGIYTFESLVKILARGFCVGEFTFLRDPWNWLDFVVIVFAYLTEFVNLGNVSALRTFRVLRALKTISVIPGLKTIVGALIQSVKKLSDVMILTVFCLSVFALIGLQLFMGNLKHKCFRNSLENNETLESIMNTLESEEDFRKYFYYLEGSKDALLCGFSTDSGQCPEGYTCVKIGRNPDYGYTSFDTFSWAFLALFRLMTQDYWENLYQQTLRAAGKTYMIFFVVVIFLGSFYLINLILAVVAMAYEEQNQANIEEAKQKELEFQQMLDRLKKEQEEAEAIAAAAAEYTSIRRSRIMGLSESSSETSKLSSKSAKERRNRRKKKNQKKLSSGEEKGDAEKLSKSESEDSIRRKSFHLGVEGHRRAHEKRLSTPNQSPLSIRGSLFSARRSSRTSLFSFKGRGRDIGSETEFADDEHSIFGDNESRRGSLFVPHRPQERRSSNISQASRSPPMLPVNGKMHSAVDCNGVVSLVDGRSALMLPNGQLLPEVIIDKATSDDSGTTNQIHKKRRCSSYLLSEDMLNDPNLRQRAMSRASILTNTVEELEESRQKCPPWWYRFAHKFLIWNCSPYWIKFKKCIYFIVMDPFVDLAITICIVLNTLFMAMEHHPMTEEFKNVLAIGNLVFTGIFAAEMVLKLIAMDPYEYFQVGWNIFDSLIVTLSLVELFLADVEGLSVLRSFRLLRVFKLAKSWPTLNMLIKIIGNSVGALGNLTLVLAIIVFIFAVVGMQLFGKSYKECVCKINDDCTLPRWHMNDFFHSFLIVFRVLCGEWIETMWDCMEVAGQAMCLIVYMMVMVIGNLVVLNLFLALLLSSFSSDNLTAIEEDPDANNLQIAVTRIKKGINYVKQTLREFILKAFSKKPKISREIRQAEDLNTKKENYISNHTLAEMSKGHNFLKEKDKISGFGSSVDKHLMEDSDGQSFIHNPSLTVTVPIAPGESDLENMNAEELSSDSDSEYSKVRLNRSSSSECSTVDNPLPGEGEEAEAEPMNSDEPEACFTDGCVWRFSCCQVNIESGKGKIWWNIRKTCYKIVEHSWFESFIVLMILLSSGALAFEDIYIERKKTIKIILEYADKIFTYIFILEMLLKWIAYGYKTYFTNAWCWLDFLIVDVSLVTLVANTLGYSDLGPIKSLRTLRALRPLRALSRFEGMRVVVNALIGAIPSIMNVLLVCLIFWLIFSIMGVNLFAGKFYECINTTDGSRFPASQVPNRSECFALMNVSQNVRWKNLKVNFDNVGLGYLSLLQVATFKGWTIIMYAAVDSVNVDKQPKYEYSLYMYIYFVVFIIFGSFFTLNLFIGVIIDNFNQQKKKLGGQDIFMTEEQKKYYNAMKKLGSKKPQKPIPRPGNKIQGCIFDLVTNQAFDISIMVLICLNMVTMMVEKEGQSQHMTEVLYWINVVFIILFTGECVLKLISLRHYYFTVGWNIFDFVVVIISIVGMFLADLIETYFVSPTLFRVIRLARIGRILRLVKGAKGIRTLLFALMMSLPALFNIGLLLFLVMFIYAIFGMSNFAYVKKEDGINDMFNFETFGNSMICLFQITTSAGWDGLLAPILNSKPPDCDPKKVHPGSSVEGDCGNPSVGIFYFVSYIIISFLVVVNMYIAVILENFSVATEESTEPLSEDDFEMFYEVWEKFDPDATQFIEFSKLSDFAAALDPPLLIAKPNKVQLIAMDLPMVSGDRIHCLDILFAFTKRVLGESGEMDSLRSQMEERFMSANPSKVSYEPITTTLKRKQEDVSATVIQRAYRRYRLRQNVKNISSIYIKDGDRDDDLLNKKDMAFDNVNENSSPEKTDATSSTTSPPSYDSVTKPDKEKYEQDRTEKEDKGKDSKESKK

CCCC[C@@H]1NC(=O)[C@H](Cc2c[nH]c3ccccc23)NC(=O)[C@H](CCCCN)NC(=O)[C@H](CCC(N)=O)NC(=O)[C@@H](NC(=O)[C@H](Cc2ccc(O)cc2)NC(=O)[C@@H](N)CC#N)CSSC[C@@H]2NC(=O)[C@@H]3CSSC[C@@H](C(=O)N[C@@H](CCCNC(=N)N)C(=O)N[C@@H](CCCCN)C(=O)N[C@@H](CCC(=O)O)C(=O)N[C@H](C(N)=O)[C@@H](C)CC)NC(=O)[C@H](Cc4c[nH]c5ccccc45)NC(=O)[C@H](CC(C)C)NC(=O)[C@H](CCCCN)NC(=O)[C@H](CSSC[C@H](NC(=O)[C@H]([C@@H](C)O)NC(=O)[C@H](Cc4c[nH]c5ccccc45)NC1=O)C(=O)N[C@@H](CC(=O)O)C(=O)N[C@@H](CO)C(=O)N[C@@H](CCCCN)C(=O)N[C@@H](CCCNC(=N)N)C(=O)N[C@@H](CCCCNC(=O)CCOCCOCCOCCOCCOCCOCCOCCOCCOCCOCCOCCOCCN)C(=O)N3)NC(=O)[C@H](CCCNC(=N)N)NC(=O)[C@H](CC(C)C)NC(=O)CNC(=O)[C@H](CCC(=O)O)NC2=O [compound 455]
Nav1.4/Nav1.7: 86
Nav1.5/Nav1.7: 1101

C#CC[C@H](N)C(=O)N[C@@H](Cc1ccc(O)cc1)C(=O)N[C@H]1CSSC[C@@H]2NC(=O)[C@@H]3CSSC[C@@H](C(=O)N[C@@H](CCCNC(=N)N)C(=O)N[C@@H](CCCCN)C(=O)N[C@@H](CCC(=O)O)C(=O)N[C@H](C(N)=O)[C@@H](C)CC)NC(=O)[C@H](Cc4ccc5ccccc5c4)NC(=O)[C@H](CC(C)C)NC(=O)[C@H](CCCCN)NC(=O)[C@H](CSSC[C@H](NC(=O)[C@H]([C@@H](C)O)NC(=O)[C@H](Cc4c[nH]c5ccccc45)NC(=O)[C@H](CCCC)NC(=O)[C@H](Cc4c[nH]c5ccccc45)NC(=O)[C@H](CCCCN)NC(=O)[C@H](CCC(N)=O)NC1=O)C(=O)N[C@@H](CC(=O)O)C(=O)N[C@@H](CO)C(=O)N[C@@H](CCCCN)C(=O)N[C@@H](CCCNC(=N)N)C(=O)N[C@@H](C)C(=O)N3)NC(=O)[C@H](CCCNC(=N)N)NC(=O)[C@H](CC(C)C)NC(=O)CNC(=O)[C@H](CCC(=O)O)NC2=O [compound 852]
IC50 [1]: 182 nM

CCCC[C@@H]1NC(=O)[C@H](Cc2c[nH]c3ccccc23)NC(=O)[C@H](CCCCN)NC(=O)[C@H](CCC(N)=O)NC(=O)[C@@H](NC(=O)[C@H](Cc2ccc(O)cc2)NC(=O)[C@H](N)Cc2ccccc2)CSSC[C@@H]2NC(=O)[C@@H]3CSSC[C@@H](C(=O)N[C@@H](CCCNC(=N)N)C(=O)N[C@@H](CCCCN)C(=O)N[C@H](C(=O)N[C@H](C(N)=O)[C@@H](C)CC)[C@@H](C)CC)NC(=O)[C@H](Cc4c[nH]c5ccccc45)NC(=O)[C@H](CC(C)C)NC(=O)[C@H](CCCCN)NC(=O)[C@H](CSSC[C@H](NC(=O)[C@H]([C@@H](C)O)NC(=O)[C@H](Cc4c[nH]c5ccccc45)NC1=O)C(=O)N[C@@H](CC(=O)O)C(=O)N[C@@H](CO)C(=O)N[C@@H](CCCCN)C(=O)N[C@@H](CCCNC(=N)N)C(=O)N[C@@H](C)C(=O)N3)NC(=O)[C@H](CCCNC(=N)N)NC(=O)[C@H](CC(C)C)NC(=O)CNC(=O)[C@H](CCC(=O)O)NC2=O [compound 374]
Nav1.4/Nav1.7: 19
Nav1.5/Nav1.7: 1757

C#CC[C@H](N)C(=O)N[C@@H](Cc1ccc(O)cc1)C(=O)N[C@H]1CSSC[C@@H]2NC(=O)[C@@H]3CSSC[C@@H](C(=O)N[C@@H](CCCNC(=N)N)C(=O)N[C@@H](CCCCN)C(=O)N[C@@H](CCC(=O)O)C(=O)N[C@H](C(N)=O)[C@@H](C)CC)NC(=O)[C@H](Cc4c[nH]c5ccccc45)NC(=O)[C@H](CCC)NC(=O)[C@H](CCCCN)NC(=O)[C@H](CSSC[C@H](NC(=O)[C@H]([C@@H](C)O)NC(=O)[C@H](Cc4c[nH]c5ccccc45)NC(=O)[C@H](CCCC)NC(=O)[C@H](Cc4c[nH]c5ccccc45)NC(=O)[C@H](CCCCN)NC(=O)[C@H](CCC(N)=O)NC1=O)C(=O)N[C@@H](CC(=O)O)C(=O)N[C@@H](CO)C(=O)N[C@@H](CCCCN)C(=O)N[C@@H](CCCNC(=N)N)C(=O)N[C@@H](C)C(=O)N3)NC(=O)[C@H](CCCNC(=N)N)NC(=O)[C@H](CC(C)C)NC(=O)CNC(=O)[C@H](CCC(=O)O)NC2=O [compound 857]
IC50 [1]: 3.03 nM

C#CC[C@H](N)C(=O)N[C@@H](Cc1ccc(O)cc1)C(=O)N[C@H]1CSSC[C@@H]2NC(=O)[C@@H]3CSSC[C@@H](C(=O)N[C@@H](CCCNC(=N)N)C(=O)N[C@@H](CCCCN)C(=O)N[C@@H](CCC(=O)O)C(=O)N[C@H](C(N)=O)[C@@H](C)CC)NC(=O)[C@H](Cc4c[nH]c5ccccc45)NC(=O)[C@H](CC(C)C)NC(=O)[C@H](CCCCN)NC(=O)[C@H](CSSC[C@H](NC(=O)[C@H]([C@@H](C)O)NC(=O)[C@H](Cc4c[nH]c5ccccc45)NC(=O)[C@H](CCCC)NC(=O)[C@H](Cc4c[nH]c5ccccc45)NC(=O)[C@H](CCCCN)NC(=O)[C@H](CCC(N)=O)NC1=O)C(=O)N[C@@H](CC(=O)O)C(=O)N[C@@H](CO)C(=O)N[C@@H](CCCCN)C(=O)N[C@@H](CCCNC(=N)N)C(=O)N[C@@H](C)C(=O)N3)NC(=O)[C@H](Cc1ccccc1)NC(=O)[C@H](CC(C)C)NC(=O)CNC(=O)[C@H](CCC(=O)O)NC2=O [compound 686]
IC50 [1]: 10.3 nM

C#CC[C@H](N)C(=O)N[C@@H](Cc1ccc(O)cc1)C(=O)N[C@H]1CSSC[C@@H]2NC(=O)[C@@H]3CSSC[C@@H](C(=O)N[C@@H](CCCNC(=N)N)C(=O)N[C@@H](CCCCN)C(=O)N[C@@H](CCC(=O)O)C(=O)N[C@H](C(=O)N[C@@H](CCC(=O)O)C(N)=O)[C@@H](C)CC)NC(=O)[C@H](Cc4c[nH]c5ccccc45)NC(=O)[C@H](CC(C)C)NC(=O)[C@H](CCCCN)NC(=O)[C@H](CSSC[C@H](NC(=O)[C@H]([C@@H](C)O)NC(=O)[C@H](Cc4c[nH]c5ccccc45)NC(=O)[C@H](CCCC)NC(=O)[C@H](Cc4c[nH]c5ccccc45)NC(=O)[C@H](CCCCN)NC(=O)[C@H](CCC(N)=O)NC1=O)C(=O)N[C@@H](CC(=O)O)C(=O)N[C@@H](CO)C(=O)N[C@@H](CCCCN)C(=O)N[C@@H](CCCNC(=N)N)C(=O)N[C@@H](C)C(=O)N3)NC(=O)[C@H](CCCNC(=N)N)NC(=O)[C@H](CC(C)C)NC(=O)CNC(=O)[C@H](CCC(=O)O)NC2=O [compound 726]
IC50 [1]: 32.4 nM

[Phe6,Atz(500 Da EtO-PEG*-[Phe6,Atz13*]GpTx-1(1-34)1)13]GpTx-1(1-34) [Homodimeric Conjugate No. 4]
Wash out: Yes
IC50 (read-out: Nav1.7 PX IC50): 19 nM

CCCC[C@H](NC(=O)[C@H](Cc1ccc(O)cc1)NC(=O)[C@H](CCCCN)NC(=O)[C@H](CCCNC(=N)N)NC(=O)[C@@H]1CSSC[C@@H]2NC(=O)[C@H](C)NC(=O)[C@H](CCCNC(=N)N)NC(=O)[C@H](CCCCN)NC(=O)[C@H](CO)NC(=O)[C@H](CC(=O)O)NC(=O)[C@@H]3CSSC[C@H](NC(=O)[C@H](CCC(=O)O)NC(=O)[C@H](CC(C)C)NC(=O)CNC(=O)[C@H](CCC(=O)O)NC(=O)[C@H](CSSC[C@H](NC(=O)[C@@H](N)Cc4ccc(O)cc4)C(=O)N[C@@H](CCC(N)=O)C(=O)N[C@@H](CCCCN)C(=O)N[C@@H](Cc4c[nH]c5ccccc45)C(=O)N[C@@H](CCSC)C(=O)N[C@@H](Cc4c[nH]c5ccccc45)C(=O)N[C@@H]([C@@H](C)O)C(=O)N3)NC2=O)C(=O)N[C@@H](CCCCN)C(=O)N[C@@H](CC(C)C)C(=O)N[C@@H](Cc2c[nH]c3ccccc23)C(=O)N1)C(N)=O [compound 239]
Nav1.4/Nav1.7: 127
Nav1.5/Nav1.7: >1575

CCCC[C@@H]1NC(=O)[C@H](Cc2c[nH]c3ccccc23)NC(=O)[C@H](CCCCN)NC(=O)[C@H](CCC(N)=O)NC(=O)[C@@H](NC(=O)[C@H](Cc2ccc(O)cc2)NC(=O)[C@@H](N)Cc2cn(CCOCCOCCOCCOCCOCCOCCOCCOCCOCCOCCOCCOCCOCCOCCOCCOCCOCCOCCOCCOCCOCCOCCOCCNC(=O)c3cc(CNC(=O)CSCc4ccccc4)cc(C(=O)NCCOCCOCCOCCOCCOCCOCCOCCOCCOCCOCCOCCOCCOCCOCCOCCOCCOCCOCCOCCOCCOCCOCCOCCn4cc(C[C@H](N)C(=O)N[C@@H](Cc5ccc(O)cc5)C(=O)N[C@H]5CSSC[C@@H]6NC(=O)[C@@H]7CSSC[C@@H](C(=O)N[C@@H](CCCNC(=N)N)C(=O)N[C@@H](CCCCN)C(=O)N[C@H](C(=O)N[C@H](C(N)=O)[C@@H](C)CC)[C@@H](C)CC)NC(=O)[C@H](Cc8c[nH]c9ccccc89)NC(=O)[C@H](CC(C)C)NC(=O)[C@H](CCCCN)NC(=O)[C@H](CSSC[C@H](NC(=O)[C@H]([C@@H](C)O)NC(=O)[C@H](Cc8c[nH]c9ccccc89)NC(=O)[C@H](CCCC)NC(=O)[C@H](Cc8c[nH]c9ccccc89)NC(=O)[C@H](CCCCN)NC(=O)[C@H](CCC(N)=O)NC5=O)C(=O)N[C@@H](CC(=O)O)C(=O)N[C@@H](CO)C(=O)N[C@@H](CCCCN)C(=O)N[C@@H](CCCNC(=N)N)C(=O)N[C@@H](C)C(=O)N7)NC(=O)[C@H](CCCNC(=N)N)NC(=O)[C@H](CC(C)C)NC(=O)CNC(=O)[C@H](CCC(=O)O)NC6=O)nn4)c3)nn2)CSSC[C@@H]2NC(=O)[C@@H]3CSSC[C@@H](C(=O)N[C@@H](CCCNC(=N)N)C(=O)N[C@@H](CCCCN)C(=O)N[C@H](C(=O)N[C@H](C(N)=O)[C@@H](C)CC)[C@@H](C)CC)NC(=O)[C@H](Cc4c[nH]c5ccccc45)NC(=O)[C@H](CC(C)C)NC(=O)[C@H](CCCCN)NC(=O)[C@H](CSSC[C@H](NC(=O)[C@H]([C@@H](C)O)NC(=O)[C@H](Cc4c[nH]c5ccccc45)NC1=O)C(=O)N[C@@H](CC(=O)O)C(=O)N[C@@H](CO)C(=O)N[C@@H](CCCCN)C(=O)N[C@@H](CCCNC(=N)N)C(=O)N[C@@H](C)C(=O)N3)NC(=O)[C@H](CCCNC(=N)N)NC(=O)[C@H](CC(C)C)NC(=O)CNC(=O)[C@H](CCC(=O)O)NC2=O [Homodimeric Peptide No. 2]
Wash out (PatchXpress Nav1.7, whether block washes out (Yes/No)): No
IC50 (read-out: Nav1.7 PX IC50): 0.241 nM

C#CC[C@H](N)C(=O)N[C@@H](Cc1ccc(O)cc1)C(=O)N[C@H]1CSSC[C@@H]2NC(=O)[C@@H]3CSSC[C@@H](C(=O)N[C@@H](CCCNC(=N)N)C(=O)N[C@@H](CCCCN)C(=O)N[C@@H](CCC(=O)O)C(=O)N[C@H](C(N)=O)[C@@H](C)CC)NC(=O)[C@H](Cc4c[nH]c5ccccc45)NC(=O)[C@H](CC(C)C)NC(=O)[C@H](CCCCN)NC(=O)[C@H](CSSC[C@H](NC(=O)[C@H]([C@@H](C)O)NC(=O)[C@H](Cc4c[nH]c5ccccc45)NC(=O)[C@H](CCCC)NC(=O)[C@H](Cc4ccc5ccccc5c4)NC(=O)[C@H](CCCCN)NC(=O)[C@H](CCC(N)=O)NC1=O)C(=O)N[C@@H](CC(=O)O)C(=O)N[C@@H](CO)C(=O)N[C@@H](CCCCN)C(=O)N[C@@H](CCCNC(=N)N)C(=O)N[C@@H](C)C(=O)N3)NC(=O)[C@H](CCCNC(=N)N)NC(=O)[C@H](CC(C)C)NC(=O)CNC(=O)[C@H](CCC(=O)O)NC2=O [compound 842]
IC50 [1]: 21.7 nM
